Data as given in US4791139A, “Diphenyl ether derivatives and their use as insecticides” (Imperial Chemical Industries PLC, priority 1986, dated 1988).

What was measured:
Assay type in all cases: in vivo
[1] = system: Tetranychus urticae (spider mites - adult); test: Contact test, spider mites - adult (TUa), French bean leaf; details: 72 h, 3 days, read-out: TUA grading of mortality
Experimental: (§1) The activity of the Product was determined using a variety of insect pests. The Product was used in the form of liquid preparations containing from 100 to 500 parts per million (ppm) by weight of the Product. The preparations were made by dissolving the Product in acetone and diluting the solutions with water containing 0.1% by weight of a wetting agent sold under the trade name "SYNPERONIC" NX until the liquid preparations contained the required concentration of the Product. "SYNPERONIC" is a Registered Trade Mark. The test procedure adopted with regard to each pest was basically the same and comprised supporting a number of the pests on a medium which was usually a host plant or a foodstuff on which the pests feed, and treating either or both the pests and the medium with the preparations. The mortality of the pests was then assessed at periods usually varying from one to seven days after the treatment.

[2] = system: Tetranychus urticae (spider mites - ova); test: Contact test, spider mites - ova (TUe), French bean leaf; details: 144 h, 6 days, read-out: TUE grading of mortality
Experimental: as §1

[3] = system: Myzus persicae (aphids); test: Contact test, aphids (MP), Chinese Cabbage leaf; details: 72 h, 3 days, read-out: MP grading of mortality
Experimental: as §1, with “treatment. […] In Table III the pest organism used is designated by a letter code and the pests species, the support medium or food, and the type and duration of test is given in Table II.” for “treatment.”

[4] = system: Nilaparvata lugens (brown plant hopper - nymphs); test: Contact test, brown plant hopper - nymphs (NL), Rice plant; details: 72 h, 3 days, read-out: NL grading of mortality
Experimental: as §1

[5] = system: Musca domestica (houseflies - adults); test: Knockdown test, houseflies - adults (MD/KD), Cotton wool/sugar; details: 4 hours, read-out: MD/KD grading of knockdown
Experimental: (§2) The activity of the Product was determined using a variety of insect pests. The Product was used in the form of liquid preparations containing from 100 to 500 parts per million (ppm) by weight of the Product. The preparations were made by dissolving the Product in acetone and diluting the solutions with water containing 0.1% by weight of a wetting agent sold under the trade name "SYNPERONIC" NX until the liquid preparations contained the required concentration of the Product. "SYNPERONIC" is a Registered Trade Mark.
(§3) The test procedure adopted with regard to each pest was basically the same and comprised supporting a number of the pests on a medium which was usually a host plant or a foodstuff on which the pests feed, and treating either or both the pests and the medium with the preparations. The mortality of the pests was then assessed at periods usually varying from one to seven days after the treatment.
In the case of the species Musca domestica (housefly), an additional assessment to determine the knockdown effect of the compounds was performed.
(§4) In Table III the pest organism used is designated by a letter code and the pests species, the support medium or food, and the type and duration of test is given in Table II.

[6] = system: Musca domestica (houseflies - adults); test: Contact test, houseflies - adults (MD), Cotton wool/sugar; details: 24 h, 1 day, read-out: MD grading of mortality
Experimental: as §1

[7] = system: Blattella germanica (cockroach nymphs); test: Residual test, cockroach nymphs (BG), Plastic pot; details: 72 h, 3 days, read-out: BG grading of mortality
Experimental: as §1

[8] = system: Heliothis virescens (tobacco budworm - larvae); test: Residual test, tobacco budworm - larvae (HV), Cotton leaf; details: 72 h, read-out: HV grading of mortality
Experimental: as §2, §3
(§5) The results of the tests are given in Table III for each of the Products, at the rate in parts per million given in the second column as a grading of mortality designated as A, B or C wherein A indicates 80-100% mortality or knockdown (70-100% for Meloidogyne incognita), B indicates 50-79% mortality knockdown or knockdown (50-69% for Meloidogyne incognita) and C indicates less than 50% mortality or knockdown.
as §4
(tobacco budworm - larvae)

[9] = system: Spodoptera exigua (lesser army worm - larvae); test: Residual test, lesser army worm - larvae (SP), Cotton leaf; details: 72 h, 3 days, read-out: SP grading of mortality
Experimental: as §2, §3, §5, §4
(lesser army worm - larvae)

[10] = system: Diabrotica balteata (rootworm larvae); test: Residual test, rootworm larvae (DB), Filter paper/maize seed; details: 72 h, 3 days, read-out: DB grading of mortality
Experimental: as §1

[11] = system: Meloidogyne incognita (Tomato root knot eelworm - larvae); test: Residual test, Tomato root knot eelworm - larvae (MI), Semi in-vitro; details: 168 h, application rate is half that recorded, 7 days, read-out: MI grading of mortality; for mortality at 250 µg/mL: rate column 500 ppm

Row | Structure (SMILES) | mortality at 500 ppm [1] [%] | mortality at 500 ppm [2] [%] | mortality at 500 ppm [3] [%] | mortality at 500 ppm [4] [%] | pest or weed control at 500 ppm [5] [%] | mortality at 500 ppm [6] [%] | mortality at 500 ppm [7] [%] | mortality at 500 ppm [8] [%] | mortality at 500 ppm [9] [%] | mortality at 500 ppm [10] [%] | mortality at 250 µg/mL [11] [%] | further results
1 | CCOc1ccc(C(CCCc2c(F)c(F)c(F)c(F)c2F)C(F)(F)F)cc1 (racemic) [Compound 43, 1,1,1-Trifluoro-2-(4-ethoxyphenyl)-5-(pentafluorophenyl)pentane] | < 50 | < 50 | < 50 | < 50 | 50 to 79 | 50 to 79 | 50 to 79 | < 50 | 80 to 100 | 80 to 100 | < 50 | 
2 | COc1ccc(C(CCCc2cccc(Oc3ccccc3)c2)C(F)(F)F)cc1 (racemic) [Compound 49, 1,1,1-Trifluoro-2-(4-methoxyphenyl)-5-(3-phenoxyphenyl)pentane] | < 50 | < 50 | 80 to 100 | 80 to 100 | 80 to 100 | 80 to 100 | < 50 | 80 to 100 | 80 to 100 | < 50 | < 50 | 
3 | CCOc1ccc(C(CCCc2cccc(Oc3ccccc3)c2)C(F)F)cc1 (racemic) [Compound 66, 1,1-Difluoro-2-(4-ethoxyphenyl)-5-(3-phenoxyphenyl)pentane] | < 50 | < 50 | 80 to 100 | 80 to 100 | < 50 | 80 to 100 | 80 to 100 | 80 to 100 | 80 to 100 | 80 to 100 | < 50 | 
4 | Fc1ccc(C=CC=C(c2ccc(OC(F)(F)F)cc2)C(F)F)cc1Oc1ccccc1 [Compound 77, 1,1-difluoro-2-(4-trifluoromethoxyphenyl)-5-(4-fluoro-3-phenoxyphenyl)penta-2,4-diene] | < 50 | < 50 | 80 to 100 | 80 to 100 | < 50 | < 50 | < 50 | 80 to 100 | 80 to 100 | 80 to 100 | 50 to 69 | 
5 | COc1ccc(C(=CCCc2cccc(Oc3ccccc3)c2)C(F)(F)F)cc1 [Compound 46, 1,1,1-Trifluoro-2-(4-methoxyphenyl)-5-(3-phenoxyphenyl)pent-2-ene] | < 50 | < 50 | < 50 | < 50 | < 50 | < 50 | < 50 | 80 to 100 | < 50 | < 50 | < 50 | 
6 | FC(F)(F)Oc1ccc(C(Cl)(CCCc2cccc(Oc3ccccc3)c2)C(F)(F)F)cc1 (racemic) [Compound 62, 1,1,1-trifluoro-2-chloro-2-(4-trifluoromethoxyphenyl)-5-(3-phenoxyphenyl)pentane] |  |  |  |  |  |  |  |  |  |  |  | mortality at 250 ppm ([1]; 250 ppm): < 50%; mortality at 250 ppm ([2]; 250 ppm): < 50%; mortality at 250 ppm ([3]; 250 ppm): < 50%; mortality at 250 ppm ([4]; 250 ppm): < 50%; pest or weed control at 250 ppm ([5]; 250 ppm): < 50%; mortality at 250 ppm ([6]; 250 ppm): < 50%; mortality at 250 ppm ([7]; 250 ppm): < 50%; mortality at 250 ppm [8]: < 50%; mortality at 250 ppm ([9]; 250 ppm): < 50%; mortality at 250 ppm ([10]; 250 ppm): < 50%; mortality at 125 µg/mL ([11]; rate 250 ppm): < 50%
7 | CCOc1c(F)cc(C(=CCCc2cccc(Oc3ccccc3)c2)C(F)(F)F)cc1F [Compound 51, 1,1,1-Trifluoro-2-(3,5-difluoro-4-ethoxyphenyl)-5-(3-phenoxyphenyl)pent-2-ene] | < 50 | < 50 | 80 to 100 | < 50 | 80 to 100 | 80 to 100 | 80 to 100 | 80 to 100 | 80 to 100 | 80 to 100 | < 50 | 
